Measurements: ChEMBL document CHEMBL1909046, “DrugMatrix in vitro pharmacology data”

Assays:
[1] = molecular target: T1, Nitric oxide synthase, inducible (Mus musculus, UniProt P29477); design: species or system Escherichia coli;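 further: inhibition of iNOS enzyme activity measured with L-arginine as substrate; in other assays of this panel Not Active means under 50% inhibition at 10 µM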
T1 sequence (P29477 whole entry): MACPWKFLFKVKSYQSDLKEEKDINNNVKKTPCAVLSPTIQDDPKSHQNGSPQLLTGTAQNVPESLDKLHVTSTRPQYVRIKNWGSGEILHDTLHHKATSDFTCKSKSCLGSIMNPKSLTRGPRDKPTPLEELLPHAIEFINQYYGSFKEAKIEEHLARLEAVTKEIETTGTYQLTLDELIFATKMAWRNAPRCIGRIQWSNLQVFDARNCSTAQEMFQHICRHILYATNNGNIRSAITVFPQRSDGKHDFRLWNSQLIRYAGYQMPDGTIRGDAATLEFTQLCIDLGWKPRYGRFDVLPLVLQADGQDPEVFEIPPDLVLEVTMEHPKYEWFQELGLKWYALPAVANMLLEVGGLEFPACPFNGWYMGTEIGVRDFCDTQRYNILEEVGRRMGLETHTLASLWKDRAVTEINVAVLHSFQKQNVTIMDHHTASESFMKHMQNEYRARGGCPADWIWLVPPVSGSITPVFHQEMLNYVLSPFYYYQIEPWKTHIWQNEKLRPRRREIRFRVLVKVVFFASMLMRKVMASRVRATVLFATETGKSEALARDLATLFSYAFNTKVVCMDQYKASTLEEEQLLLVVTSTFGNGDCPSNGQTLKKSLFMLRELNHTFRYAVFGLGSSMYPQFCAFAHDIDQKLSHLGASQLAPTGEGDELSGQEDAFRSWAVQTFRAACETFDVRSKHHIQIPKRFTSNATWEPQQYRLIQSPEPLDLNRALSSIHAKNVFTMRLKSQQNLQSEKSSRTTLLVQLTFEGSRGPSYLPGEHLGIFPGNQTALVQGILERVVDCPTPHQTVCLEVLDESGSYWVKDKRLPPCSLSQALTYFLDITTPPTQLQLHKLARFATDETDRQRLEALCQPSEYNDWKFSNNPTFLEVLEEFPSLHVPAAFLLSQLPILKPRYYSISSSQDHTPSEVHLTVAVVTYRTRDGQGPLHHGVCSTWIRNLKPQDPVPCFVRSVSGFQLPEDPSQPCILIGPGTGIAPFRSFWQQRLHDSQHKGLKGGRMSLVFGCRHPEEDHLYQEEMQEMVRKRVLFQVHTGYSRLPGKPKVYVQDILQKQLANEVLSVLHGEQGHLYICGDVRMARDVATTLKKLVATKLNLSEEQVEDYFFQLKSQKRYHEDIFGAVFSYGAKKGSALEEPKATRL

[2] = molecular target: Vascular endothelial growth factor receptor 1 (Homo sapiens, UniProt P17948); assay: biochemical; type: cell-based, HUVEC; conditions: huvec; further: in other assays of this panel Not Active means under 50% inhibition at 10 µM
[3] = molecular target: Cytochrome P450 2C19 (Homo sapiens, UniProt P33261); conditions: bti-tn-5b1-4; further: in other assays of this panel Not Active means under 50% inhibition at 10 µM
[4] = DRUGMATRIX: Glutamate, Kainate radioligand binding (ligand: [3H] Kainic acid); type: cell membranes, Rattus norvegicus, Wistar, Brain, Membrane; conditions: Not Active = under 50% inhibition at 10 µM
[5] = molecular target: T2, Neuropeptide Y receptor type 2 (Homo sapiens, UniProt P49146); type: cell membranes, Membrane; conditions: kan-ts; further: in other assays of this panel Not Active means under 50% inhibition at 10 µM
T2 sequence (P49146 whole entry): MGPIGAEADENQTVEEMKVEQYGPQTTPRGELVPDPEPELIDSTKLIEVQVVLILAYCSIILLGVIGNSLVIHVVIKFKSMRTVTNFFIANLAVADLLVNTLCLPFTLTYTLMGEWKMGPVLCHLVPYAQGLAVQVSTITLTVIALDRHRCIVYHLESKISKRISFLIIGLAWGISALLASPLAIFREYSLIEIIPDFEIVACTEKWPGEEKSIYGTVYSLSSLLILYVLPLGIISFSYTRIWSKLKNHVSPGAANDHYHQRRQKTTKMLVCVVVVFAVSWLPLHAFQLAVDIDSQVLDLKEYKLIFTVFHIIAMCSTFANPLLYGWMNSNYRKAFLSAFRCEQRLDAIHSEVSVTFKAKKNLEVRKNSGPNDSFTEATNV

[6] = DRUGMATRIX: Potassium Channel [KATP] radioligand binding (ligand: [3H] Glyburide); type: cell membranes, Membrane; conditions: hit-t15; Not Active = under 50% inhibition at 10 µM
[7] = molecular target: Cytochrome P450 3A4 (Homo sapiens, UniProt P08684); conditions: bti-tn-5b1-4; further: in other assays of this panel Not Active means under 50% inhibition at 10 µM
[8] = molecular target: Mitogen-activated protein kinase 14 (Homo sapiens, UniProt Q16539); design: species or system Escherichia coli
Sequence of Mitogen-activated protein kinase 14 (Q16539 whole entry): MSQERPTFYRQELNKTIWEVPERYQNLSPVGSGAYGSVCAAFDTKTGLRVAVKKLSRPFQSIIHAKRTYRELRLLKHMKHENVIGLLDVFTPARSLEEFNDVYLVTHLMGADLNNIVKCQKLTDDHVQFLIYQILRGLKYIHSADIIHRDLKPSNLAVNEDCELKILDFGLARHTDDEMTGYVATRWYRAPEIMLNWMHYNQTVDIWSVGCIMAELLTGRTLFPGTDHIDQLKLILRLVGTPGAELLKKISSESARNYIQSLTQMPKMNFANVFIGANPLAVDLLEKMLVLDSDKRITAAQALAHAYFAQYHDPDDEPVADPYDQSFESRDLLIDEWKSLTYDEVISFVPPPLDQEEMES

Sequence of Vascular endothelial growth factor receptor 1 (P17948 whole entry): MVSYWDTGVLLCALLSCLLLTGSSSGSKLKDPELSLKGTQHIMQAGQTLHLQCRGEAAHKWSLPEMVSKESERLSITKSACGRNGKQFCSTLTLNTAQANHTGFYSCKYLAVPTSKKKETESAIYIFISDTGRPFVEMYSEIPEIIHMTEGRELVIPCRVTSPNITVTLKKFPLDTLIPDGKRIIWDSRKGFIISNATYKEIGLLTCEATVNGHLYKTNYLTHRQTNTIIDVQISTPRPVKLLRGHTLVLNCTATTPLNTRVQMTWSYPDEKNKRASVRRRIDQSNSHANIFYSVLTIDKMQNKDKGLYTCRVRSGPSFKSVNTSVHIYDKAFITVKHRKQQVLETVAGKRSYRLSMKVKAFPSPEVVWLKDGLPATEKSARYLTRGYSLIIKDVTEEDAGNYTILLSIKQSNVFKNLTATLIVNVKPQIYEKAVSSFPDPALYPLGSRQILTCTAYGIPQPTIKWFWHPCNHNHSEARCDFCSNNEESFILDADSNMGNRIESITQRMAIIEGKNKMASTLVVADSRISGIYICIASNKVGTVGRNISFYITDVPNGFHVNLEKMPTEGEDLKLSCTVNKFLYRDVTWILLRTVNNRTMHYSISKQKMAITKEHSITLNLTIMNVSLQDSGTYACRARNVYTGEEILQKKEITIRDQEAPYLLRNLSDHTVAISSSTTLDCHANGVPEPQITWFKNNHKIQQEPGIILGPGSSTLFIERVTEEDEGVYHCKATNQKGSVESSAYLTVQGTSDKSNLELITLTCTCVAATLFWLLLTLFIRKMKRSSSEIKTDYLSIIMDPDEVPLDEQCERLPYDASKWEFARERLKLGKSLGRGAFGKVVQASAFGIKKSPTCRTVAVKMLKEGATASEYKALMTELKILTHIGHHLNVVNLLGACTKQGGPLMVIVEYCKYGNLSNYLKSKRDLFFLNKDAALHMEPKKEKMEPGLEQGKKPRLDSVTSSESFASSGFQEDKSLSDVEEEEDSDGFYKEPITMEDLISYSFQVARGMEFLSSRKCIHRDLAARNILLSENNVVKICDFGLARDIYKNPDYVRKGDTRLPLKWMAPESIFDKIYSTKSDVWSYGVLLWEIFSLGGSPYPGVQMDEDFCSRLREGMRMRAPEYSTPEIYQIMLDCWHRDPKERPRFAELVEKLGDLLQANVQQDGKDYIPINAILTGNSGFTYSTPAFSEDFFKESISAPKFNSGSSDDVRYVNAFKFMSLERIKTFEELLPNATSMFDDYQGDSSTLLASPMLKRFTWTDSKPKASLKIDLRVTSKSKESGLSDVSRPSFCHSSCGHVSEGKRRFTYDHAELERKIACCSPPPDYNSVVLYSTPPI
Sequence of Cytochrome P450 2C19 (P33261 whole entry): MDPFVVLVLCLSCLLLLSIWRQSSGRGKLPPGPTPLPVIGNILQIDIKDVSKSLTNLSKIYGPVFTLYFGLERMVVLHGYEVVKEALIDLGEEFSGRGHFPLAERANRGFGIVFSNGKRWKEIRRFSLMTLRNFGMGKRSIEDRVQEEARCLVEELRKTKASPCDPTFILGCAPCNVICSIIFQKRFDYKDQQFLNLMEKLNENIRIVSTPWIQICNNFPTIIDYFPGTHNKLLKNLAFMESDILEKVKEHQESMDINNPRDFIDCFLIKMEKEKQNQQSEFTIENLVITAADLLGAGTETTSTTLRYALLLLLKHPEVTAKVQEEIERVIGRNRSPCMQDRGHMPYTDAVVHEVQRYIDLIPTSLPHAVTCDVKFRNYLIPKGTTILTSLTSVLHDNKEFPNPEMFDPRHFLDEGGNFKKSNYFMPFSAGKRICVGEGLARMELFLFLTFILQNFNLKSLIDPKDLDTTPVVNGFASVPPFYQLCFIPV
Sequence of Cytochrome P450 3A4 (P08684 whole entry): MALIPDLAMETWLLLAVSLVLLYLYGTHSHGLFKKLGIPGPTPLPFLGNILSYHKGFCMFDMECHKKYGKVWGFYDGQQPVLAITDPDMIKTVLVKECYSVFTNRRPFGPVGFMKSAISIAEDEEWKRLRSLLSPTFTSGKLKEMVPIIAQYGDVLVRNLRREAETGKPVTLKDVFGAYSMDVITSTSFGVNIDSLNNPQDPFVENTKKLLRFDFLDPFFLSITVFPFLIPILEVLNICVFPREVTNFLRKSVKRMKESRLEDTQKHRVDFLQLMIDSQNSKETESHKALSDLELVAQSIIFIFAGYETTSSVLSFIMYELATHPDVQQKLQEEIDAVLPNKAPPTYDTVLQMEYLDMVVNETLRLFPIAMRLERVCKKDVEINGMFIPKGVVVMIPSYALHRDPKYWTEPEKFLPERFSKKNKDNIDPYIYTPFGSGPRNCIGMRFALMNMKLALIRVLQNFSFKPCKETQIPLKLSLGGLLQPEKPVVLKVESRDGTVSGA

COc1cc(N)nc2[nH]c(-c3ccc(F)cc3)c(-c3ccncc3)c12
Not Active: IC50 [1] | IC50 [2] | IC50 [3] | Ki [3] | IC50 [4] | Ki [4] | IC50 [5] | IC50 [6] | Ki [6]

CNS(=O)(=O)Cc1ccc2[nH]cc(CCN(C)C)c2c1
Not Active: IC50 [1] | IC50 [2] | IC50 [3] | Ki [3] | IC50 [7] | Ki [7] | IC50 [8] | IC50 [4] | Ki [4] | IC50 [5] | IC50 [6] | Ki [6]

CCCc1nn(C)c2c(=O)[nH]c(-c3cc(S(=O)(=O)N4CCN(C)CC4)ccc3OCC)nc12
Not Active: IC50 [1] | IC50 [2] | IC50 [3] | Ki [3] | IC50 [7] | Ki [7] | IC50 [8] | IC50 [4] | Ki [4] | IC50 [5] | IC50 [6] | Ki [6]

COc1ccc(/C=C/C(=O)Nc2ccccc2C(=O)O)cc1OC
Not Active: IC50 [1] | IC50 [2] | IC50 [3] | Ki [3] | IC50 [7] | Ki [7] | IC50 [8] | IC50 [4] | Ki [4] | IC50 [5] | IC50 [6] | Ki [6]

CCOC(N)=O
Not Active: IC50 [1] | IC50 [2] | IC50 [3] | Ki [3] | IC50 [7] | Ki [7] | IC50 [8] | IC50 [4] | Ki [4] | IC50 [5] | IC50 [6] | Ki [6]

CC(=O)Nc1nnc(S(N)(=O)=O)s1 [ACETAZOLAMIDE]
Not Active: IC50 [1] | IC50 [2] | IC50 [3] | Ki [3] | IC50 [7] | Ki [7] | IC50 [8] | IC50 [5]

O=c1[nH]c2ccccc2n1CCCN1CCC(n2c(=O)[nH]c3cc(Cl)ccc32)CC1 [DOMPERIDONE]
Not Active: IC50 [1] | IC50 [2] | IC50 [8] | IC50 [5]

CC1=C(CC(=O)O)c2cc(F)ccc2/C1=C\c1ccc(S(C)(=O)=O)cc1 [EXISULIND]
Not Active: IC50 [1] | IC50 [2] | IC50 [3] | Ki [3] | IC50 [7] | Ki [7] | IC50 [8] | IC50 [4] | Ki [4] | IC50 [5] | IC50 [6] | Ki [6]

CC(C)OC(=O)C(C)(C)Oc1ccc(C(=O)c2ccc(Cl)cc2)cc1 [FENOFIBRATE]
Not Active: IC50 [1] | IC50 [2] | IC50 [3] | Ki [3] | IC50 [7] | Ki [7] | IC50 [8] | IC50 [5]

OCCN1CCN(CCCN2c3ccccc3Sc3ccc(C(F)(F)F)cc32)CC1 [FLUPHENAZINE]
Not Active: IC50 [1] | IC50 [2] | IC50 [8] | IC50 [5]

CN1C2CCCC1CC(NC(=O)c1nn(C)c3ccccc13)C2 (configuration not stated) [GRANISETRON]
Not Active: IC50 [1] | IC50 [2] | IC50 [3] | Ki [3] | IC50 [7] | Ki [7] | IC50 [8] | IC50 [5]

CC[C@@H](CO)NC(=O)[C@@H]1C=C2c3cccc4c3c(cn4C)C[C@H]2N(C)C1 [METHYSERGIDE]
Not Active: IC50 [1] | IC50 [2] | IC50 [3] | Ki [3] | IC50 [7] | Ki [7] | IC50 [8] | IC50 [5]

CCN(CC)CC#CCOC(=O)C(O)(c1ccccc1)C1CCCCC1 (configuration not stated) [OXYBUTYNIN]
Not Active: IC50 [1] | IC50 [2] | IC50 [7] | Ki [7] | IC50 [8] | IC50 [5]

CN(CCOc1ccc(CC2SC(=O)NC2=O)cc1)c1ccccn1 (configuration not stated) [ROSIGLITAZONE]
Not Active: IC50 [1] | IC50 [2] | IC50 [3] | Ki [3] | IC50 [8] | IC50 [4] | Ki [4] | IC50 [5] | IC50 [6] | Ki [6]

C=C(C)[C@H]1Cc2c(ccc3c2O[C@@H]2COc4cc(OC)c(OC)cc4[C@@H]2C3=O)O1 [ROTENONE]
Not Active: IC50 [1] | IC50 [2] | IC50 [7] | Ki [7] | IC50 [8] | IC50 [4] | Ki [4] | IC50 [5] | IC50 [6] | Ki [6]

C#CCN(C)[C@H](C)Cc1ccccc1 [SELEGILINE]
Not Active: IC50 [1] | IC50 [2] | IC50 [7] | Ki [7] | IC50 [8] | IC50 [4] | Ki [4] | IC50 [5] | IC50 [6] | Ki [6]

CO[C@H]1C[C@@H]2CC[C@@H](C)[C@@](O)(O2)C(=O)C(=O)N2CCCC[C@H]2C(=O)O[C@H]([C@H](C)C[C@@H]2CC[C@@H](O)[C@H](OC)C2)CC(=O)[C@H](C)/C=C(\C)[C@@H](O)[C@@H](OC)C(=O)[C@H](C)C[C@H](C)/C=C/C=C/C=C/1C [SIROLIMUS]
Not Active: IC50 [1] | IC50 [2] | IC50 [8] | IC50 [4] | Ki [4] | IC50 [5] | IC50 [6] | Ki [6]

CN[C@@H]1[C@H](O)[C@H](NC)[C@H]2O[C@@]3(O)C(=O)C[C@@H](C)O[C@H]3O[C@@H]2[C@H]1O [SPECTINOMYCIN]
Not Active: IC50 [1] | IC50 [2] | IC50 [7] | Ki [7] | IC50 [8] | IC50 [4] | Ki [4] | IC50 [5] | IC50 [6] | Ki [6]

C[C@]12CC[C@H]3[C@@H](CCC4=CC(=O)CC[C@@]43C)[C@@H]1CC[C@@H]2O [TESTOSTERONE]
Not Active: IC50 [1] | IC50 [2] | IC50 [3] | Ki [3] | IC50 [7] | Ki [7] | IC50 [8] | IC50 [4] | Ki [4] | IC50 [5]

CC(C)(C)NC[C@H](O)COc1nsnc1N1CCOCC1 [TIMOLOL]
Not Active: IC50 [1] | IC50 [2] | IC50 [3] | Ki [3] | IC50 [8] | IC50 [4] | Ki [4] | IC50 [5] | IC50 [6] | Ki [6]

CCS(=O)(=O)CCn1c([N+](=O)[O-])cnc1C [TINIDAZOLE]
Not Active: IC50 [1] | IC50 [2] | IC50 [8] | IC50 [4] | Ki [4] | IC50 [5] | IC50 [6] | Ki [6]

O=c1n(CCCN2CCN(c3cccc(Cl)c3)CC2)nc2ccccn12 [TRAZODONE]
Not Active: IC50 [1] | IC50 [2] | IC50 [3] | Ki [3] | IC50 [7] | Ki [7] | IC50 [8] | IC50 [5]

COc1ccc(CN2CCNCC2)c(OC)c1OC [TRIMETAZIDINE]
Not Active: IC50 [1] | IC50 [2] | IC50 [8] | IC50 [4] | Ki [4] | IC50 [5] | IC50 [6] | Ki [6]
